Reference: patent US20200270588A1, “GLUCOSYL TRANSFERASE POLYPEPTIDES AND METHODS OF USE” (Syngenta Participations AG, priority 2017, published 2020)

Tests used:
Format in all cases: biochemical
[1] = molecular target: T1, SEQ ID NO 23, mutant of Zea mays bx9 glucosyl transferase (Zea mays, UniProt B4G072, A334K/F21Y/L194C/M279F/S117V); assay: UDP-Glo glucosyl transferase assay, purified enzyme; details: lower block, concentration printed only in upper block: V 0.300, VII 0.210; IV, VIII, XI, XXI, XX, XVIII, XVI, XV, XIV 0.200; others 1.000 mM
T1 construct: His tag (C); made in house
Description: (§1) Glucosyl transferase activity is assayed via measurement of acceptor substrate-dependent production of UDP from ultrapure UDP-glucose using the Promega UDP-Glo™ method and according to the manufacturer's instructions. Assays are run in 96 well microtiter plates.
(§2) Enzyme, typically at a stock concentration of ˜2 mg/ml is diluted to an appropriate concentration in 50 mM K^+ Hepes buffer at pH7.5 containing 0.5 mg/mL bovine serum albumin (BSA) and 5 ul aliquots of this diluted enzyme added to each well of a Perkin Elmer white ½ area 96 well plate. […] Assays are run for an appropriate time (usually 10 to 60 min) so that the amount of UDP formed lies within the most nearly linear part of the UDP standard curve and are stopped with the addition and mixing of 25 ul UDP-Glo™ detection reagent (prepared as described below). Plates are then incubated at room temperature for 60 minutes and then read in a luminescence plate reader (Perkin Elmer Envision 2130 Multilabel Reader). A UDP standard curve is run alongside each set of assays and reagent blank control assays run with DMSO in place of test herbicide. Typically, 300 pmol of UDP corresponds to a Relative Luminescence Unit (RLU) reading of about 1.5E7 and the response curve between 0 and 600 pmol is fitted to a polynomial function (see for example FIG. 2).
(§3) The UDP-Glo™ reagents are made up and used according to the manufacturer's instructions. Thus, Nucleotide Detection Buffer and ATP are combined to make nucleotide detection reagent (NDR) dispensed into aliquots and frozen to be freshly thawed before use. […]
(§4) Table 13 summarizes the results obtained from assays, run as described in Example 1, using a variety of alcohol and aminal PSII herbicides as substrates of the Zea mays bx9 w/t (i.e. C-terminally his tagged SEQ ID no 1) and various mutants of the same, selected from SEQ ID NO: 16-30). All of these proteins were C-terminally his-tagged, expressed and purified as described in Example 1. Assays were run and analyzed as described in example 1. It is seen that various of the mutations herein and combinations thereof led to significant improvements (over the w/t bx9 protein) in catalytic activity versus various of the herbicides and that these improvements are often of sufficient magnitude to be useful for conferring improved herbicide tolerance upon crop. This is especially the case given that even the unmutated w/t bx9 enzyme which has only modest glucosyl transferase activity (for example against compounds V and VI) was nevertheless adequately active to confer significant herbicide tolerance in the glass house (as shown in example 9) even without mutational improvement. It is also seen that particular mutations can lead to very much improved activity in respect of some chemistries but not to others but that, overall, there is at least one variant within the scope of the current invention that provides significant and useful improvement in tolerance to each of the chemistries tested.

[2] = molecular target: T2, SEQ ID NO 18, mutant of Zea mays bx9 glucosyl transferase (Zea mays, UniProt B4G072, A281K/A334K/F21Y/M279F/S117V); assay: as above; details: herbicide mM: V 0.300, VI 0.250, VII 0.210; IV, VIII, XI, XXI, XX, XVIII, XVI, XV, XIV 0.200; others 1.000
T2 construct: His tag (C); made in house
Description: as §1, §2, §3, §4

[3] = molecular target: T3, SEQ ID NO 19, mutant of Zea mays bx9 glucosyl transferase (Zea mays, UniProt B4G072, A281K/A334K/L194V/M279F/S117V); assay: as above; details: herbicide mM: V 0.300, VI 0.250, VII 0.210; IV, VIII, XI, XXI, XX, XVIII, XVI, XV, XIV 0.200; others 1.000
T3 construct: His tag (C); made in house
Description: as §1, §2, §3, §4

[4] = molecular target: T4, Zea mays bx9 glucosyl transferase (C-terminally his tagged SEQ ID NO: 1) (Zea mays, UniProt B4G072); assay: as above; details: for Activity: herbicide mM: V 0.300, VI 0.250, VII 0.210, IV, VIII, XI, XXI, XX, XVIII, XVI, XV, XIV 0.200, others 1.000; for kcat: 0.5 mM UDP-glucose, 25 C, pH 7.5, DMSO reagent blank as control
T4 construct: His tag (C); made in house; host or cells: E. coli BL21 (DE3), pET24a
T4 sequence (B4G072 1-462): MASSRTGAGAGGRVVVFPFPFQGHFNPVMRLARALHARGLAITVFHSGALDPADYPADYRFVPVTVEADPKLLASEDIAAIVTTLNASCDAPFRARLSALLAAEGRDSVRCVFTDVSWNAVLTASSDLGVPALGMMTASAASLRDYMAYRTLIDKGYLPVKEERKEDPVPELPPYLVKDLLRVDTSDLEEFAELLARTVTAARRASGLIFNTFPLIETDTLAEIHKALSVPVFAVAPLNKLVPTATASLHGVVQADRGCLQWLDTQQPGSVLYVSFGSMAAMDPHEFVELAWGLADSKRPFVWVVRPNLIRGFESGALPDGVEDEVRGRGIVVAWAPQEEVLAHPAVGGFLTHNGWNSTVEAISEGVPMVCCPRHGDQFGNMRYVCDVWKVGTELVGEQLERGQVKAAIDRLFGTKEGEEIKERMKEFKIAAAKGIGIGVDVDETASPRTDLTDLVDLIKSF
Description: as §1, §2
(§5) The UDP-Glo™ reagents are made up and used according to the manufacturer's instructions. Thus, Nucleotide Detection Buffer and ATP are combined to make nucleotide detection reagent (NDR) dispensed into aliquots and frozen to be freshly thawed before use.
(§6) Km and kcat values in respect of UDP-glucose are derived by carrying out experiments to measure initial rates over a suitable range of concentrations of UDP glucose out at a fixed near saturating concentration of acceptor substrate. Best fit values of kcat, Km and kcat/Km are obtained by direct fitting of the data to the Michaelis-Menten equation using Graphpad Prism™ software.

[5] = molecular target: T5, SEQ ID NO 20, mutant of Zea mays bx9 glucosyl transferase (Zea mays, UniProt B4G072, A281K/A334K/F21Y/L194V/M279F/S117V); details: lower block, concentration printed only in upper block: V 0.300, VII 0.210; IV, VIII, XI, XXI, XX, XVIII, XVI, XV, XIV 0.200; others 1.000 mM
T5 construct: His tag (C); made in house
Description: as §1
as §2, with “herbicide.” for “herbicide. Typically, 300 pmol of UDP corresponds to a Relative Luminescence Unit (RLU) reading of about 1.5E7 and the response curve between 0 and 600 pmol is fitted to a polynomial function (see for example FIG. 2).”
as §5, §6
All of these proteins were C-terminally his-tagged, expressed and purified as described in Example 1. Assays were run and analyzed as described in example 1.

[6] = molecular target: T6, SEQ ID NO 21, mutant of Zea mays bx9 glucosyl transferase (Zea mays, UniProt B4G072, A334K/F21Y/L194V/M279F/S117V); assay: UDP-Glo glucosyl transferase assay, purified enzyme; details: lower block, concentration printed only in upper block: V 0.300, VII 0.210; IV, VIII, XI, XXI, XX, XVIII, XVI, XV, XIV 0.200; others 1.000 mM
T6 construct: His tag (C); made in house
Description: as §1, §2, §5, §6
(§7) Variants of C-terminally his tagged SEQ ID No:1 (w/t bx9 from Zea mays), exemplified as SEQ ID 16-30, were cloned, purified and assayed as described in Example 1. FIG. 4 depicts the data from some experiments to determine the kinetic parameters of some of these variants in respect of herbicide VI and table 12 summarizes the estimates of kinetic parameters obtained from further such experiments in respect of a range of herbicides.
as §4

[7] = molecular target: T7, SEQ ID NO 22, mutant of Zea mays bx9 glucosyl transferase (Zea mays, UniProt B4G072, A334K/F21Y/M279F/S117V/T220P); assay: as above; details: lower block, concentration printed only in upper block: V 0.300, VII 0.210; IV, VIII, XI, XXI, XX, XVIII, XVI, XV, XIV 0.200; others 1.000 mM
T7 construct: His tag (C); made in house
Description: as §1, §2, §5, §6, §7, §4

[8] = molecular target: T8, SEQ ID NO 17, zmBX9 S117V, M279F, A334K mutant (Zea mays, UniProt B4G072, A334K/M279F/S117V); assay: as above; details: for Activity: herbicide mM: V 0.300, VI 0.250, VII 0.210, IV, VIII, XI, XXI, XX, XVIII, XVI, XV, XIV 0.200, others 1.000
T8 construct: polypeptides were the C-terminally his-tagged; His tag (C); made in house
Description: as §1, §2, §5, §6, §7, §4

| SMILES | Activity [1] [pmol/sec/pmol enzyme] | Activity [2] [pmol/sec/pmol enzyme] | Activity [3] [pmol/sec/pmol enzyme] | Activity [4] [pmol/sec/pmol enzyme] | Activity [5] [pmol/sec/pmol enzyme] | Activity [6] [pmol/sec/pmol enzyme] | Activity [7] [pmol/sec/pmol enzyme] | Activity [8] [pmol/sec/pmol enzyme] | kcat [4] [s⁻¹] | increase in activity over bx9 w/t protein [8] |
| --- | --- | --- | --- | --- | --- | --- | --- | --- | --- | --- |
| CC1C(O)N(c2cc(C(F)(F)F)c(Cl)cn2)C(=O)N1C (centres unmarked) [XIX] | 0.207 | 0.467 | 0.363 | −0.001 | 0.414 | 0.234 | 0.315 | 0.157 |  |  |
| CN1CC(O)N(c2cc(C(C)(C)C)ncn2)C1=O (centres unmarked) [IV] | 0.023 | 0.145 | 0.053 | 0.000 | 0.079 | 0.008 | 0.099 | 0.019 |  |  |
| C[C@@H]1C(=O)N(c2noc(C(C)(C)C)c2C#N)C(O)[C@H]1C (some centres unmarked) [XXVI] | 0.034 | 0.051 | 0.095 | −0.001 | 0.143 | 0.040 | 0.073 | 0.020 |  |  |
| CN1CC(O)N(c2nnc(C(C)(C)C)s2)C1=O (centres unmarked) [IX] | 0.013 | 0.115 | 0.070 | 0.017 | 0.068 | 0.012 | 0.071 | 0.035 | 0.036 |  |
| CSc1nnc(C(C)(C)C)c(=O)n1N [metribuzin] |  |  |  |  |  |  |  |  |  | 1.3-1.5 × |
| CN1CC(O)N(c2cc(C(C)(C)C)on2)C1=O (centres unmarked) [XXII] | 0.020 | 0.186 | 0.080 | 0.000 | 0.120 | 0.015 | 0.101 | 0.023 |  |  |
| CN1CC(O)N(c2cc(C(F)(F)F)n(C)n2)C1=O (centres unmarked) [XII] |  |  |  | 0.007 |  |  |  | 0.018 |  |  |
| CON1C(=O)N(c2cc(C(F)(F)F)c(C)cn2)C(O)[C@@H]1C (some centres unmarked) [XV] | 1.641 |  | 1.391 |  |  | 1.711 | 1.530 | 0.833 |  |  |
| COC1=C(C)C(O)N(c2cc(C(C)(C)C)ncn2)C1=O (centres unmarked) [X] |  |  | 0.102 | −0.001 | 0.137 |  |  |  |  |  |
| CC1CC(O)N(c2ncc(C(F)(F)F)s2)C1=O (centres unmarked) [XVI] |  | 0.359 |  |  | 0.687 |  | 0.285 | 0.073 |  |  |
| C[C@H]1C(O)N(c2cc(C(C)(C)F)ncn2)C(=O)N1C (some centres unmarked) [XIV] | 0.196 |  |  | −0.001 | 0.411 |  |  | 0.037 |  |  |
| C[C@@H]1C(O)N(c2cc(C(C)(C)C)on2)C(=O)N1C (some centres unmarked) [VII] |  | 0.087 |  | 0.000 | 0.049 |  | 0.042 |  |  |  |
| COc1ccc2c(c1)OC(O)C(=O)N2O (centres unmarked) [DIMBOA, 2,4-dihydroxy-7-methoxy-1,4-benzoxazin-3-one] |  |  |  |  |  |  |  |  | 20.82 |  |
